In patent publication US20100173835A1, “Peptides for Treatment of Obesity” (Novo Nordisk A/S, priority 2008, published 2010):
In brackets after ≈: the same amount, converted by molar mass. Read-outs that look alike come from different tables or passages of the source. Where a SMILES comes first, the peptide text is derived from it. Bridges are numbered along the chain shown (N, C = ends). [ ]: non-standard residue; d: D form. The star is where a group is joined. Palmitoyl(16-(5-tetrazolyl)) = O=C(CCCCCCCCCCCCCCCc1nnn[nH]1)*; Lys(CH2CO2H)2 = N[C@@H](CCCCN(CC(=O)O)CC(=O)O)C(=O)O; C16 diacid = O=C(O)CCCCCCCCCCCCCCC(=O)*; Hyp = O=C(O)[C@@H]1C[C@@H](O)CN1; NTA = O=C(O)CN(CC(=O)O)CC(=O)*; Nle = CCCC[C@H](N)C(=O)O; Dap = NC[C@H](N)C(=O)O; AEEA = NCCOCCOCC(=O)O

Key:
[1] = Solubility data of compounds in water over the pH range; format: physicochemical
[2] = biological target: T1, human MC4 receptor (Homo sapiens, UniProt P32245); assay: Assay (V) Melanocortin Receptor 4 (MC4) binding assay; conditions: 125NDP-α-MSH binding, BHK cell membranes
T1 construct: expressed in transfected cells
T1 sequence (P32245 whole entry): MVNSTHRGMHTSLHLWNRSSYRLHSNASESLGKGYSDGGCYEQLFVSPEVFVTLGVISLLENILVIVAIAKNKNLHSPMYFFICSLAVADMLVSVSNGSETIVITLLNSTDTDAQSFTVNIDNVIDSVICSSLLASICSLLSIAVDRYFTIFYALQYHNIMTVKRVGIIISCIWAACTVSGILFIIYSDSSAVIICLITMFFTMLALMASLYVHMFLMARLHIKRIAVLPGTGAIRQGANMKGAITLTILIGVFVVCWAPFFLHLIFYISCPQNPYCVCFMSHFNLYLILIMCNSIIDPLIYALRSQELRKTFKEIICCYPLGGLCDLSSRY
Description: Assay (V)—Melanocortin Receptor 4 (MC4) Binding Assay
In vitro ^125NDP-α-MSH binding to recombinant BHK cells expressing human MC4 receptor (filtration assay).
The assay is performed in 5 ml minisorb vials (Sarstedt No. 55.526) or in 96-well filterplates (Millipore MADVN 6550), and using BHK cells expressing the human MC4 receptor using BHK cells stably expressing the human MC4 receptor. The membranes were prepared from frozen or fresh cells that were homogenized in 20 mM HEPES pH 7.1, 5 mM MgCl2 and 1 mg/ml bacitracin and centrifuged at 15000 rpm at 4° C., 10 min in a Sorvall RC 5B plus, SS-34 rotor. The supernatant was discarded, and the pellets were re-suspended in buffer, homogenized and centrifuged two more times. The final pellets were resuspended in the buffer mentioned above, and the protein concentration was measured and adjusted with buffer to 14 to 17 mg/ml and the membrane preparation were kept at −80° C. until assay. The assay was run directly on a dilution of this cell membrane suspension, without any further preparation. The BHK cell membranes are kept at −80° C. until assay, and the assay is run directly on a dilution of this cell membrane suspension, without further preparation. The suspension is diluted to give maximally 10% specific binding, i.e. to approx. 50-100 fold dilution. The assay is performed in a total volume of 200 μl: 50 μl of cell suspension, 50 μl of ^125NDP-α-MSH (≈79 pM in final concentration), 50 μl of test compound and 50 μl binding buffer (pH 7) mixed and incubated for 2 h at 25° C. [binding buffer: 25 mM HEPES, pH 7.0, 1 mM CaCl2, 1 mM MgSO4, 1 mM EGTA, 0.02% Bacitracin, 0.005% Tween™ 20 and 0.1% HSA or, alternatively, 0.1% ovalbumin (Sigma; catalogue No. A-5503)]. Test compounds are dissolved in DMSO and diluted in binding buffer. Radiolabelled ligand and membranes are diluted in binding buffer. The incubation is stopped by dilution with 2×100 μl ice-cold 0.9% NaCl. The radioactivity retained on the filters is counted using a Cobra II auto gamma counter.
(§1) The data are analysed by non-linear regression analysis of binding curves, using the Windows™ program GraphPad™ Prism (GraphPad Software, USA).

[3] = biological target: T2, MC1 receptor (Homo sapiens, UniProt Q01726); assay: Assay (IV) Melanocortin Receptor 1 (MC1) binding assay
T2 construct: expressed in transfected cells
T2 sequence (Q01726 whole entry): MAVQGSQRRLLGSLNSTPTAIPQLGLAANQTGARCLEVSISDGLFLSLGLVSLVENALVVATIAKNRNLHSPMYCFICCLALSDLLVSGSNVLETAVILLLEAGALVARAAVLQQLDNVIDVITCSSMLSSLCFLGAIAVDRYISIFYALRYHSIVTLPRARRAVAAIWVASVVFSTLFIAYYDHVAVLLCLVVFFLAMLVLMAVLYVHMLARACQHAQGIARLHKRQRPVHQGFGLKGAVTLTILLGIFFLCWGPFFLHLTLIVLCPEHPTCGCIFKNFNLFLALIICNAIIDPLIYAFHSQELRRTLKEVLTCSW
Description: Assay (IV)—Melanocortin Receptor 1 (MC1) Binding Assay
The MC1 receptor binding assay is performed on BHK cell membranes stably expressing the MC1 receptor. The assay is performed in a total volume of 250 NI: 25 μl of ^125NDP-α-MSH (22 pM in final concentration), 25 μl of test compound/control and 200 μl of cell membrane (25 μg/ml). Test compounds are dissolved in DMSO. Radioactively labeled ligand, membranes and test compounds are diluted in buffer: 25 mM HEPES, pH 7.4, 0.1 mM CaCl2, 1 mM MgSO4, 1 mM EDTA, 0.1% HSA and 0.005% Tween™ 20. Alternatively, HSA may be substituted with ovalbumin. The samples are incubated at 30° C. for 90 min. in Costar round-bottom microtiter plates. Incubation is terminated by filtration on a Packard harvester filtermate. Rapid filtration through Packard Unifilter-96 GF/B filters pre-treated with polyethylenimine (PerkinElmer 6005277). The filters are washed with ice-cold 0.9% NaCl 8-10 times. The plates is air dried at app. 55° C. for 30 min, and 50 μl Microscint 0 (Packard, cat. No. 6013616) is added to each well. The plates are counted in a Topcounter (1 min/well).
as §1

[4] = 125NDP-α-MSH binding, BHK cell membranes, read-out: Assay (IV) MC1 Ki

Structure (SMILES): CCCC[C@H](NC(=O)[C@H](CCCCNC(=O)CN(CC(=O)O)CC(=O)O)NC(=O)[C@H](CO)NC(=O)[C@H](CCC(N)=O)NC(=O)[C@H](CO)NC(=O)CNC(=O)COCCOCCNC(=O)CCCCCCCCCCCCCCC(=O)O)C(=O)N[C@H]1CCC(=O)NCCCC[C@@H](C(N)=O)NC(=O)[C@H](Cc2c[nH]c3ccccc23)NC(=O)[C@H](CCCNC(=N)N)NC(=O)[C@@H](Cc2ccccc2)NC(=O)[C@@H]2C[C@@H](O)CN2C1=O [Example 21, {2-[2-(15-Carboxypentadecanoylamino)ethoxy]ethoxy}acetyl-Gly-Ser-Gln-Ser-Lys(BCMA)-Nle-c[Glu-Hyp-D-Phe-Arg-Trp-Lys]-NH2] ({C16 diacid-AEEA}-GSQSK(NTA)[Nle]E[Hyp][dF]RWK-NH2; lactam 7-12)
- solubility at 3 days ([1]; pH 4.04): 26 µM (≈ 53.2 µg/mL)
- solubility at 3 days ([1]; pH 4.34): 32 µM (≈ 65.5 µg/mL)
- solubility at 3 days ([1]; pH 4.74): 40 µM (≈ 81.9 µg/mL)
- solubility at 3 days ([1]; pH 5.21): 58 µM (≈ 119 µg/mL)
- solubility at 3 days ([1]; pH 5.67): 103 µM (≈ 211 µg/mL)
- solubility at 3 days ([1]; pH 6.26): 108 µM (≈ 221 µg/mL)
- solubility at 3 days ([1]; pH 6.29): 106 µM (≈ 217 µg/mL)
- solubility at 3 days ([1]; pH 6.87): 117 µM (≈ 239 µg/mL)
- solubility at 3 days ([1]; pH 7.6): 116 µM (≈ 237 µg/mL)
- solubility at 3 days ([1]; pH 7.61): 107 µM (≈ 219 µg/mL)
- Ki ([2]; read-out: Assay (V) MC4 [Ki]): 14.7 nM
- Ki [3, 4]: > 10000 nM

Structure (SMILES): CCCC[C@H](NC(=O)[C@H](CNC(=O)CN(CC(=O)O)CC(=O)O)NC(=O)[C@H](CO)NC(=O)[C@H](CCC(N)=O)NC(=O)[C@H](CO)NC(=O)CNC(=O)COCCOCCNC(=O)COCCOCCNC(=O)COCCOCCNC(=O)COCCOCCNC(=O)CCCCCCCCCCCCCCCc1nnn[nH]1)C(=O)N[C@H]1CCC(=O)NCCCC[C@@H](C(N)=O)NC(=O)[C@H](Cc2c[nH]c3ccccc23)NC(=O)[C@H](CCCNC(=N)N)NC(=O)[C@@H](Cc2ccccc2)NC(=O)[C@@H]2C[C@@H](O)CN2C1=O [Example 14, (2-{2-[2-(2-{2-[2-(2-{2-[2-(2-{2-[16-(Tetrazol-5-yl)hexadecanoylamino]ethoxy}ethoxy)acetylamino]ethoxy}ethoxy)acetylamino]ethoxy}ethoxy)acetylamino]ethoxy}ethoxy)acetyl-Gly-Ser-Gln-Ser-Dap(BCMA)-Nle-c[Glu-Hyp-D-Phe-Arg-Trp-Lys]-NH2] ({Palmitoyl(16-(5-tetrazolyl))-AEEA-AEEA-AEEA-AEEA}-GSQS[Dap](NTA)[Nle]E[Hyp][dF]RWK-NH2; lactam 7-12)
- solubility at 3 days ([1]; pH 3.18): 19 µM (≈ 47.1 µg/mL)
- solubility at 3 days ([1]; pH 4.62): 15 µM (≈ 37.2 µg/mL)
- solubility at 3 days ([1]; pH 4.66): 23 µM (≈ 57 µg/mL)
- solubility at 3 days ([1]; pH 5.07): 18 µM (≈ 44.6 µg/mL)
- solubility at 3 days ([1]; pH 5.37): 10 µM (≈ 24.8 µg/mL)
- solubility at 3 days ([1]; pH 5.84): 41 µM (≈ 102 µg/mL)
- solubility at 3 days ([1]; pH 6.5): 19 µM (≈ 47.1 µg/mL)
- solubility at 3 days ([1]; pH 7): 17 µM (≈ 42.1 µg/mL)
- solubility at 3 days ([1]; pH 7.29): 20 µM (≈ 49.6 µg/mL)
- solubility at 3 days ([1]; pH 7.43): 29 µM (≈ 71.9 µg/mL)
- Ki ([2]; read-out: Assay (V) MC4 [Ki]): 8.65 nM
- Ki [3, 4]: > 10000 nM

Structure (SMILES): CCCC[C@H](NC(=O)[C@H](CCCCN(CC(=O)O)CC(=O)O)NC(=O)[C@H](Cc1c[nH]cn1)NC(=O)[C@H](CCC(N)=O)NC(=O)[C@H](CO)NC(=O)[C@H](CO)NC(=O)[C@H](CCC(N)=O)NC(=O)[C@@H](CO)NC(=O)CNC(=O)COCCOCCNC(=O)COCCOCCNC(=O)CCCCCCCCCCCCCCCc1nnn[nH]1)C(=O)N[C@H]1CCC(=O)NCCCC[C@@H](C(N)=O)NC(=O)[C@H](Cc2c[nH]c3ccccc23)NC(=O)[C@H](CCCNC(=N)N)NC(=O)[C@@H](Cc2ccccc2)NC(=O)[C@@H]2C[C@@H](O)CN2C1=O [Example 3, (2-{2-[2-(2-{2-[16-(Tetrazol-5-yl)hexadecanoylamino]ethoxy}ethoxy)acetylamino]ethoxy}ethoxy)acetyl-Gly-D-Ser-Gln-Ser-Ser-Gln-His-Lys(biscarboxymethyl)-Nle-c[Glu-Hyp-D-Phe-Arg-Trp-Lys]-NH2] ({Palmitoyl(16-(5-tetrazolyl))-AEEA-AEEA}-G[dS]QSSQH[Lys(CH2CO2H)2][Nle]E[Hyp][dF]RWK-NH2; lactam 10-15)
- solubility at 3 days ([1]; pH 2.95, pH 2.95, read-out: Conc (solubility in water)): 435 µM (≈ 1100 µg/mL)
- solubility at 3 days ([1]; pH 3.88, pH 3.88, read-out: Conc (solubility in water)): 570 µM (≈ 1440 µg/mL)
- solubility at 3 days ([1]; pH 4.82, pH 4.82, read-out: Conc (solubility in water)): 429 µM (≈ 1080 µg/mL)
- solubility at 3 days ([1]; pH 4.84, pH 4.84, read-out: Conc (solubility in water)): 324 µM (≈ 818 µg/mL)
- solubility at 3 days ([1]; pH 5.18, pH 5.18, read-out: Conc (solubility in water)): 75 µM (≈ 189 µg/mL)
- solubility at 3 days ([1]; pH 6.1, pH 6.10, read-out: Conc (solubility in water)): 39 µM (≈ 98.5 µg/mL)
- solubility at 3 days ([1]; pH 6.95, pH 6.95, read-out: Conc (solubility in water)): 87 µM (≈ 220 µg/mL)
- solubility at 3 days ([1]; pH 7.15, pH 7.15, read-out: Conc (solubility in water)): 190 µM (≈ 480 µg/mL)
- solubility at 3 days ([1]; pH 7.24, pH 7.24, read-out: Conc (solubility in water)): 256 µM (≈ 646 µg/mL)
- solubility at 3 days ([1]; pH 7.29, pH 7.29, read-out: Conc (solubility in water)): 316 µM (≈ 798 µg/mL)
- Ki ([2]; Assay (V) MC4 [Ki] (nM)): 1.95 nM
- Ki [3]: > 10000 nM
